# Test results as given in patent US20200002354A1, “HEXAHYDROPYRAZINOBENZ- OR -PYRIDO-OXAZEPINES CARRYING AN OXYGEN-CONTAINING SUBSTITUENT AND USE THEREOF IN THE TREATMENT OF 5-HT2C-DEPENDENT DISORDERS” (AbbVie Deutschland GmbH & Co. KG, priority 2015, published 2020).
# Assays:
# 5-HT2C receptor = molecular target: T1, 5-HT2C receptor (Homo sapiens, UniProt P28335); test: Human 5-HT2C functional assay (beta-arrestin2 recruitment, U2OS_HTR2C_β-Arrestin cells); format: cell-based; settings: for EC50: Potency (EC50 5-HT2C) in functional assay, agonism, read-out: EC50 5-HT2C; for Emax: relative efficacy vs maximal effect induced by 5-HT (defined as 100%)
# T1 construct: host or cells: U2OS
# Description: 1. Human 5-HT2C Functional Assay
# The functional activity of compounds of formula I was assayed by incubation with U2OS_HTR2C_β-Arrestin cells (DiscoverX, 93-0289C3) to induce beta-arrestin2 recruitment to the 5-HT2C receptor. The agonist-induced recruitment and proximity of the receptor and beta-arrestin2 leads to complementation and formation of active β-galactosidase. The enzyme complementation results in enzyme activity, which is measured following the termination of the agonist incubation using DiscoveRx's detection reagent, which contains a chemiluminescent substrate which produces a high intensity signal. Cells were plated and a medium-change to a 1% serum containing medium was performed 24 h later. The next day, test compounds were added and incubated for 1.5 h before addition of detection reagent.
# The response produced was measured and compared with the response produced by 10 [mu]M 5-HT or the maximal effect induced by 5-HT (defined as 100%) to which it was expressed as a percentage response (relative efficacy).
# [1] = Metabolic stability in human liver microsomes, unbound intrinsic clearance; format: in vitro ADME; settings: liver microsomes, pH 7.4; unbound intrinsic clearance (human); Clint unbound = Cl int/fu mic; read-out: Cl int, mic unb. (h)
# Description: Samples of the tested compounds (0.5 μM) were preincubated together with human liver microsomes (0.25 mg of microsomal protein/mL) in 0.05 M potassium phosphate buffer of pH 7.4 in microtiter plates at 37° C. for 5 minutes. The reaction was started by adding NADPH (1.0 mM). After 0, 5, 10, 15, 20 and 30 minutes, an aliquot was removed, the reaction was cooled and stopped by adding twice the amount of quench solution consisting of acetonitrile/methanol 1:1, and containing 0.2 μM carbutamide as internal standard. The samples were frozen until analyzed. The remaining concentration of undegraded test substance was determined by liquid chromatography-tandem mass spectrometry (LC-MS/MS). The half-life (t1/2) was determined from the gradient of the ratio of the signal of (test substance/internal standard)/unit time plot, allowing the calculation of the half-life of the test substance, assuming first order kinetics, from the decrease in the concentration of the compound with time. The microsomal clearance (mClint) was calculated as follows: mClint=((ln(2)/t ½)/Microsomal Protein Concentration (mg/ml))*1000, leading to the unit of uL/min/mg. The scaled clearance (mClin_scaled) was calculated as mCLint_scaled=m CLint*(Microsomal Yield (mg/kg BW))/1000000*60, leading to the units L/h/kg. The Microsomal Yield is defined by the specifics of the used microsomes. Calculations were modified from references: Di, The Society for Biomolecular Screening, 2003, 453-462; Obach, D M D, 1999 vol 27. N 11, 1350-1359.
# Calculation of Unbound Intrinsic Clearance
# C1int unbound=C1 int/fu mic
# human 5-HT2B receptor = molecular target: T2, human 5-HT2B receptor (Homo sapiens, UniProt P41595); test: Human 5-HT2B functional assay (calcium mobilisation in CHO-FlpIn cells, FLIPR); format: cell-based; settings: based on agonism: EC50 5-HT2B/EC50 5-HT2C
# T2 construct: expressed in transfected cells; host or cells: CHO-FlpIn
# Description: 3. Human 5-HT2B Functional Assay
# Functional activity on the 5-HT2B receptor was determined by testing the effect of the compounds I on calcium mobilisation in CHO-FlpIn cells, stably transfected with human 5-HT2B receptor. Cells were seeded into sterile black 384-well plates with clear bottom at 30,000 cells/well in a volume of 25 μl and grown overnight at 37° C., in 5% CO2 in tissue culture medium (“CHO-S-SFM II” by Invitrogen), containing 1% dialysed FCS and 50 μg/ml gentamicin (Invitrogen). On the next morning, medium was replaced by a serum free version of the same tissue culture medium for a further incubation for 4 hours at 37° C. and in 5% CO2. Cells were then loaded with a fluorescent calcium-sensitive dye in the presence of 0.07% probenecid for an hour at 37° C., according to the manufacturer's protocol (Ca5-Assay Kit, Molecular Devices), followed by an additional 60 min incubation at room temperature. Serial compound dilutions (final concentrations of 10^−10 to 10^−5M, prepared in HBSS+50 mM HEPES) were first added to the cells alone (“first addition” to assess agonism on the 5-HT2B receptor), then after 8 min, serotonin was added to the same wells at a final concentration of 10^−8 M (“second addition” to see potential antagonistic effect) and the maximal calcium response was determined using a FLIPR® Tetra instrument (Molecular Devices) in each of the two steps. The relative efficacy of the compounds was calculated as a percentage of the maximal effect induced by serotonin alone (defined as 100%). To determine EC50/IC50 values, concentration-response curves were fitted using a four-parameter logistic equation (IDBS Biobookml). Kb values were calculated from IC50 values, according to Cheng & Prusoff
# human 5-HT2A receptor = molecular target: T3, human 5-HT2A receptor (Homo sapiens, UniProt P28223); test: Human 5-HT2A functional assay (calcium mobilisation in CHO-K1 cells, FLIPR); format: cell-based; settings: based on agonism: EC50 5-HT2A/EC50 5-HT2C
# T3 construct: expressed in transfected cells; host or cells: CHO-K1
# Description: 2. Human 5-HT2A Functional Assay
# Functional activity on the 5-HT2A receptor was determined by testing the effect of the compounds I on calcium mobilisation in CHO-K1 cells, stably transfected with human 5-HT2A receptor. Cells were seeded into sterile black 384-well plates with clear bottom at 25,000 cells/well in a volume of 25 μl and grown for 5-6 hours at 37° C., in 5% CO2 in tissue culture medium (“Ultra CHO” by LONZA), containing 1% dialysed FCS and 50 μg/ml gentamicin (Invitrogen). After this incubation, medium was replaced by a serum free version of the same tissue culture medium followed by incubation overnight at 37° C. and in 5% CO2. Cells were then loaded with a fluorescent calcium-sensitive dye in the presence of 0.07% probenecid for an hour at 37° C., according to the manufacturer's protocol (Ca5-Assay Kit, Molecular Devices), followed by an additional 60 min incubation at room temperature. Serial compound dilutions (final concentrations of 10^−10 to 10^−5M, prepared in HBSS+50 mM HEPES) were first added to the cells alone (“first addition” to assess agonism on the 5-HT2A receptor), then after 8 min, serotonin was added to the same wells at a final concentration of 3×10^−8 M (“second addition” to see potential antagonistic effect) and the maximal calcium response was determined using a FLIPR® Tetra instrument (Molecular Devices) in each of the two steps. The relative efficacy of the compounds was calculated as a percentage of the maximal effect induced by serotonin alone (defined as 100%). To determine EC50/IC50 values, concentration-response curves were fitted using a four-parameter logistic equation (IDBS Biobookml). Kb values were calculated from IC50 values, according to Cheng & Prusoff
# T1 sequence (P28335 33-458): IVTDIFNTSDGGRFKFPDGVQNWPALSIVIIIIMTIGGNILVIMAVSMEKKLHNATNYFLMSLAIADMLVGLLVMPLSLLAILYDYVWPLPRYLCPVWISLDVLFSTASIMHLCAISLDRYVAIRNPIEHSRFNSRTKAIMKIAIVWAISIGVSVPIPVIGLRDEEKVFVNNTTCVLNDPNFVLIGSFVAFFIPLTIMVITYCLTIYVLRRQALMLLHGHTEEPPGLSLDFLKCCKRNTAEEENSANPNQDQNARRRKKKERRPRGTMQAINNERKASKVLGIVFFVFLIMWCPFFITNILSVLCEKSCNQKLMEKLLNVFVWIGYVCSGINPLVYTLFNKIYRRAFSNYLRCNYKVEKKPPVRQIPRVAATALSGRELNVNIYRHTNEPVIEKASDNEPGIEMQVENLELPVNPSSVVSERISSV
# T1 sequence (P32121 whole entry partner): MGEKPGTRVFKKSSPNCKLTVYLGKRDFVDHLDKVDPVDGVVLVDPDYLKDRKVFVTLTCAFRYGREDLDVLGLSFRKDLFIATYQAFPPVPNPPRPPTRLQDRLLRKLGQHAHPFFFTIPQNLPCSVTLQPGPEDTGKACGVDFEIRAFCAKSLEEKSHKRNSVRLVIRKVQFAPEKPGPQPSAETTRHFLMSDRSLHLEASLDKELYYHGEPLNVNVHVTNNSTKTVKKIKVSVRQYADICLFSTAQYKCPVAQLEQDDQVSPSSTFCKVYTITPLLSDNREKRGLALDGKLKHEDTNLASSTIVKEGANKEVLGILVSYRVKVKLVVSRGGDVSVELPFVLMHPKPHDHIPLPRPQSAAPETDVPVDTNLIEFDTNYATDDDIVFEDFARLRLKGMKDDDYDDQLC
# T3 sequence (P28223 whole entry): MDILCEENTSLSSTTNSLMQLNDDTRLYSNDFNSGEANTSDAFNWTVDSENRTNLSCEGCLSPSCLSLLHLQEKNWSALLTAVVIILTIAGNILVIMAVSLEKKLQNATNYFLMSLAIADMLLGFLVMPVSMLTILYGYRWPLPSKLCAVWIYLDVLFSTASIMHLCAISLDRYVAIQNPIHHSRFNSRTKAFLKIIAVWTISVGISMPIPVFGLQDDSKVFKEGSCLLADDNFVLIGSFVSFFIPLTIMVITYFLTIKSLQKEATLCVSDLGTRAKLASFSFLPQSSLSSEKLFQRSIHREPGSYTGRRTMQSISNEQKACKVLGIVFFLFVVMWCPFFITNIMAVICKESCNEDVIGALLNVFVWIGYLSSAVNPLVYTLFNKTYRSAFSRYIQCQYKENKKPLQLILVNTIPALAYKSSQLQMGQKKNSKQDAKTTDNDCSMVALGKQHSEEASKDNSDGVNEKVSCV
# T2 sequence (P41595 whole entry): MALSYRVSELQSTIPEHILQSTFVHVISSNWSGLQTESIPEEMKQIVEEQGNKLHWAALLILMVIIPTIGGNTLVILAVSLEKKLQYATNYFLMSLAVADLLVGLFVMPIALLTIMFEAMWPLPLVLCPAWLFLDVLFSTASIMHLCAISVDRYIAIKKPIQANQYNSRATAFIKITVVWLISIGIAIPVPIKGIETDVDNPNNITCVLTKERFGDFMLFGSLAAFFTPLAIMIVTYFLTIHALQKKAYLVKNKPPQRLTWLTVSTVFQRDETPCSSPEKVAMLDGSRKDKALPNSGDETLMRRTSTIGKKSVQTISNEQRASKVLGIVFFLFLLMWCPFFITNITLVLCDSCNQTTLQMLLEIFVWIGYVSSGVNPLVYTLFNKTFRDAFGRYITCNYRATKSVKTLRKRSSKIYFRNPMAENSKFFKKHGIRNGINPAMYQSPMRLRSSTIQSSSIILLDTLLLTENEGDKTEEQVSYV
SMILES,EC50 (5-HT2C receptor) [µM],Emax (5-HT2C receptor) [%],CLint scaled at 0.5 μM [1] [L/h/kg],Selectivity over 5-HT2B (human 5-HT2B receptor),Selectivity over 5-HT2A (human 5-HT2A receptor)
"COC[C@@H]1C[C@@H]2CNCCN2c2c(F)cccc2O1.Cl [Example 54, (4aR,6S)-11-Fluoro-6-(methoxymethyl)-2,3,4,4a,5,6-hexahydro-1H-pyrazino[2,1-d][1,5]benzoxazepine hydrochloride]",0.2 to 1,30 to 50,< 5,+ (from 10 to 30),+ (from 10 to 30)
"COC[C@@H]1C[C@@H]2CNCCN2c2ccc(F)cc2O1.Cl [Example 51, (4aR,6S)-9-Fluoro-6-(methoxymethyl)-2,3,4,4a,5,6-hexahydro-1H-pyrazino[2,1-d][1,5]benzoxazepine hydrochloride]",0.2 to 1,50 to 70,< 5,++ (from >30 to 100),+ (from 10 to 30)
"COC[C@@H]1C[C@@H]2CNCCN2c2cc(F)cc(C(F)F)c2O1.Cl [Example 9, (4aR,6S)-8-(Difluoromethyl)-10-fluoro-6-(methoxymethyl)-2,3,4,4a,5,6-hexahydro-1H-pyrazino[2,1-d][1,5]benzoxazepine hydrochloride]",< 0.02,> 70,< 5,+++ (>100),+++ (>100)
"COC[C@@H]1C[C@@H]2CNCCN2c2cc(C)cc(F)c2O1 [Example 33, (4aR,6S)-8-Fluoro-6-(methoxymethyl)-10-methyl-2,3,4,4a,5,6-hexahydro-1H-pyrazino[2,1-d][1,5]benzoxazepine]",0.2 to 1,50 to 70,< 5,+ (from 10 to 30),+ (from 10 to 30)
"COC[C@@H]1C[C@@H]2CNCCN2c2cc(F)cc(F)c2O1.Cl [Example 11, (4aR,6S)-8,10-Difluoro-6-(methoxymethyl)-2,3,4,4a,5,6-hexahydro-1H-pyrazino[2,1-d][1,5]benzoxazepine hydrochloride]",0.02 to 0.2,> 70,< 5,++ (from >30 to 100),+++ (>100)
"COC[C@@H]1C[C@@H]2CNCCN2c2cc(Cl)cc(Cl)c2O1 [Example 52, (4aR,6S)-8,10-Dichloro-6-(methoxymethyl)-2,3,4,4a,5,6-hexahydro-1H-pyrazino[2,1-d][1,5]benzoxazepine]",0.02 to 0.2,> 70,< 5,++ (from >30 to 100),+++ (>100)
"COC[C@@H]1C[C@@H]2CNCCN2c2c(F)c(OC)cc(C(F)F)c2O1.Cl [Example 29, (4aR,6S)-8-(Difluoromethyl)-11-fluoro-10-methoxy-6-(methoxymethyl)-2,3,4,4a,5,6-hexahydro-1H-pyrazino[2,1-d][1,5]benzoxazepine hydrochloride]",0.02 to 0.2,> 70,5 to 50,+++ (>100),+++ (>100)
"COC[C@@H]1C[C@@H]2CNCCN2c2cc(Cl)ccc2O1.Cl [Example 10, (4aR,6S)-10-Chloro-6-(methoxymethyl)-2,3,4,4a,5,6-hexahydro-1H-pyrazino[2,1-d][1,5]benzoxazepine hydrochloride]",0.02 to 0.2,–,5 to 50,++ (from >30 to 100),++ (from >30 to 100)
"COC[C@@H]1C[C@@H]2CNCCN2c2ccc(C)c(F)c2O1 [Example 30, (4aR,6S)-8-Fluoro-6-(methoxymethyl)-9-methyl-2,3,4,4a,5,6-hexahydro-1H-pyrazino[2,1-d][1,5]benzoxazepine]",0.02 to 0.2,50 to 70,< 5,++ (from >30 to 100),++ (from >30 to 100)
"COC[C@@H]1C[C@@H]2CNCCN2c2c(cc(F)c(F)c2F)O1.Cl [Example 47, (4aR,6S)-9,10,11-Trifluoro-6-(methoxymethyl)-2,3,4,4a,5,6-hexahydro-1H-pyrazino[2,1-d][1,5]benzoxazepine hydrochloride]",0.02 to 0.2,> 70,< 5,+++ (>100),+++ (>100)
"Cl.[2H]C([2H])([2H])OC[C@@H]1C[C@@H]2CNCCN2c2cc(F)cc(Cl)c2O1 [Example 19, (4aR,6S)-8-Chloro-10-fluoro-6-(trideuteriomethoxymethyl)-2,3,4,4a,5,6-hexahydro-1H-pyrazino[2,1-d][1,5]benzoxazepine hydrochloride]",< 0.02,> 70,< 5,++ (from >30 to 100),+++ (>100)
"COC[C@H]1C[C@@H]2CNCCN2c2c(F)c(F)cc(Cl)c2O1.Cl [Example 37, (4aR,6R)-8-Chloro-10,11-difluoro-6-(methoxymethyl)-2,3,4,4a,5,6-hexahydro-1H-pyrazino[2,1-d][1,5]benzoxazepine hydrochloride]",0.2 to 1,30 to 50,< 5,+ (from 10 to 30),+ (from 10 to 30)
"COC[C@@H]1C[C@@H]2CNCCN2c2cc(Cl)c(F)cc2O1.Cl [Example 31, (4aR,6S)-10-Chloro-9-fluoro-6-(methoxymethyl)-2,3,4,4a,5,6-hexahydro-1H-pyrazino[2,1-d][1,5]benzoxazepine hydrochloride]",0.02 to 0.2,30 to 50,< 5,++ (from >30 to 100),++ (from >30 to 100)
